Source: patent US11319318B2, “Pyridinones and isoquinolinones as inhibitors of the bromodomain BRD9” (Boehringer Ingelheim International GmbH, priority 2015, dated 2022)

Molecular target: T1, bromodomain of BRD9 (GST-BRD9 aa 130-259) / H3 K9/14/18/23Ac(1-28) peptide (Homo sapiens, UniProt Q9H8M2)
T1 construct: The protein corresponding to amino acids 130-259 that contains the bromodomain of BRD9; made in house; host or cells: E. coli
T1 sequence (Q9H8M2 130-259): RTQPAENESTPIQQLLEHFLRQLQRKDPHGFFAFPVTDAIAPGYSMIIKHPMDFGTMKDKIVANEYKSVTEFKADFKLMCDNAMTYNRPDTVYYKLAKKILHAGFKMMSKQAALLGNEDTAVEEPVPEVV
Assay: BRD9-H3 tetra-acetylated Peptide Inhibition AlphaScreen
Type: binding

IC50	SMILES
967 nM	Cc1cc(-c2cc(C)c(=O)n(C)c2)c(C)cc1CN1CCNCC1 [Compound I-186, 5-(2,5-Dimethyl-4-piperazin-1-ylmethyl-phenyl)-1,3-dimethyl-1H-pyridin-2-one]
9200 nM	Cc1cc(-c2ccc(N3CCOCC3)cc2)c(C)n(C)c1=O [Compound I-215]
1010 nM	C[C@H](N)c1ccc(-c2cn(C)c(=O)c3ccccc23)cc1 [II-46]
231 nM	Cc1cc(-c2ccc(CN3CCN(C)CC3)c(N(C)C)c2)cn(C)c1=O [Compound I-204, 5-[3-Dimethylamino-4-(4-methyl-piperazin-1-ylmethyl)-phenyl]-1,3-dimethyl-1H-pyridin-2-one]
29 nM	COc1cc(-c2cc(C)c(=O)n(C)c2C)ccc1COC1CNC1 [Compound I-153]
369 nM	COCCOc1cc(-c2cc(C)c(=O)n(C)c2)ccc1CN1CCN(C)CC1 [Compound I-195, 5-[3-(2-Methoxy-ethoxy)-4-(4-methyl-piperazin-1-ylmethyl)-phenyl]-1,3-dimethyl-1H-pyridin-2-one]
1320 nM	Cc1cc(-c2ccc(C(=O)N3CCN(C)CC3)c(OC(F)(F)F)c2)cn(C)c1=O [Compound I-177, 1,3-Dimethyl-5-[4-(4-methyl-piperazine-1-carbonyl)-3-trifluoromethoxy-phenyl]-1H-pyridin-2-one]
197 nM	COc1cc(S(=O)(=O)N(C)CCN(C)C)c(OC)cc1-c1cn(C)c(=O)c(C)c1C [Compound I-110]
1250 nM	COc1cc(-c2cc(C)c(=O)n(C)c2)ccc1CN [Compound I-96]
479 nM	COc1cc(-c2cc(C)c(=O)n(C)c2)ccc1CN1CC(N(C)C)C1 [Compound I-206, 5-[4-(3-Dimethylamino-azetidin-1-ylmethyl)-3-methoxy-phenyl]-1,3-dimethyl-1H-pyridin-2-one]
630 nM	COc1cc(-c2cn(C)c(=O)c3cccnc23)c(OC)cc1CN(C)C [II-26]
335 nM	COc1cc(-c2cc(C)c(=O)n(C)c2)ccc1CN1C[C@H]2C[C@@H]1CN2C [Compound I-72]
409 nM	COc1cc(-c2cc(C)c(=O)n(C)c2)ccc1C(=O)N1C[C@@H]2CC1CN2 [Compound I-76]
458 nM	Cc1cc(-c2ccc(CN3CCN(C)CC3)c(O)c2)cn(C)c1=O [Compound I-194, 5-[3-Hydroxy-4-(4-methyl-piperazin-1-ylmethyl)-phenyl]-1,3-dimethyl-1H-pyridin-2-one]
95 nM	COc1cc(-c2cn(C)c(=O)c3[nH]ccc23)ccc1C(=O)N1CCN(C)CC1 [III-7]
2540 nM	Cc1cc(-c2cccc(CN(C)C)c2)cn(C)c1=O [Compound I-17]
178 nM	CN(C)Cc1ccc(-c2cn(C)c(=O)c3ccc(Cn4cccn4)cc23)cc1 [II-20]
387 nM	COc1cc(-c2cc(C)c(=O)n(C)c2C)ccc1CN1C[C@@H]2CC1CN2C [Compound I-133]
1550 nM	CNS(=O)(=O)c1ccc(-c2cc(C)c(=O)n(C)c2)cc1 [Compound I-12]
142 nM	COCc1c(OC)cc(-c2cc(C)c(=O)n(C)c2)cc1OC [Compound I-59]
289 nM	CCc1cc(-c2cc(C)c(=O)n(C)c2)cc(OC)c1C(O)CC (stereo not shown) [Compound I-71]
187 nM	Cc1cc(-c2ccc(CN3CC(O)C3)cc2)cn(C)c1=O [Compound I-179, 5-[4-(3-Hydroxy-azetidin-1-ylmethyl)-phenyl]-1,3-dimethyl-1H-pyridin-2-one]
218 nM	Cc1cc(-c2ccc3c(c2)CN(C)C3)cn(C)c1=O [Compound I-209, 1,3-Dimethyl-5-(2-methyl-2,3-dihydro-1H-isoindol-5-yl)-1H-pyridin-2-one]
37 nM	COc1cc(-c2cn(C)c(=O)c(C)c2C)cc(OC)c1CN1CC(O)C1 [Compound I-103]
468 nM	CCOc1cc(-c2cc(C)c(=O)n(C)c2)ccc1CN1CCN(C)CC1 [Compound I-197, 5-[3-Ethoxy-4-(4-methyl-piperazin-1-ylmethyl)-phenyl]-1,3-dimethyl-1H-pyridin-2-one]

IC50	SMILES
5270 nM	CN1CCN(C(=O)c2ccc(-c3cn(C)c(=O)c4cncnc34)cc2)CC1 [II-51]
41 nM	COc1cc(-c2cn(C)c(=O)c(I)c2C)cc(OC)c1CN(C)C [Compound I-167]
145 nM	Cc1cc(-c2ccc([C@H](C)N3CCCC3)cc2)cn(C)c1=O [Compound I-2, 1,3-dimethyl-5-[4-((S)-1-pyrrolidin-1-yl-ethyl)-phenyl]-1H-pyridin-2-one]
880 nM	Cc1cc(-c2ccc(CN)cc2)c(C)n(C)c1=O [Compound I-140]
166 nM	COc1cc(S(=O)(=O)N(C)CCN(C)C)c(OC)cc1-c1cc(C)c(=O)n(C)c1C [Compound I-125]
105 nM	Cc1cc(-c2ccc([C@@H](C)N3CCCC3)cc2)cn(C)c1=O [Compound I-1, 1,3-Dimethyl-5-[4-((R)-1-pyrrolidin-1-yl-ethyl)-phenyl]-1H-pyridin-2-one]
71 nM	COc1cc(-c2cc(C)c(=O)n(C)c2)ccc1CN1CCN(Cc2cccc(N)c2)CC1 [Compound I-198, 5-{4-[4-(3-Amino-benzyl)-piperazin-1-ylmethyl]-3-methoxy-phenyl}-1,3-dimethyl-1H-pyridin-2-one]
708 nM	Cc1cc(-c2ccc3c(c2)CCNC3)cn(C)c1=O [Compound I-85]
181 nM	COc1cc(-c2cc(C)c(=O)n(C)c2)c(OC)cc1CN1CCN(C)CC1 [Compound I-62]
203 nM	COc1cc(-c2cc(C)c(=O)n(C)c2)cc(OC)c1CN1CCN(C)CC1 [Compound I-63]
103 nM	Cc1c(-c2ccc3c(c2)CNC3)cn(C)c(=O)c1C [Compound I-106]
11 nM	COc1cc(-c2cn(C)c(=O)c3cnccc23)cc(OC)c1CN1CC(N)C1 [II-31]
211 nM	Cc1cc(-c2ccc(S(=O)(=O)N3CCNCC3)cc2)cn(C)c1=O [Compound I-64]
851 nM	Cc1cc(-c2cc(C)c(=O)n(C)c2C)ccc1C1(N2CCN(C)CC2)CC1 [Compound I-135]
344 nM	COc1cc(-c2cn(C)c(=O)c3cncnc23)c(OC)cc1CN(C)C [II-12]
126 nM	COc1cc(-c2cn(C)c(=O)c3ccccc23)ccc1CN(C)C [II-41, 4-(4-Dimethylaminomethyl-3-methoxy-phenyl)-2-methyl-2H-isoquinolin-1-one]
320 nM	Cc1cc(-c2cn(C)c(=O)c(C)c2C)ccc1C1(N2CCN(C)CC2)CC1 [Compound I-112]
143 nM	Cc1cc(-c2cc(C)c(=O)n(C)c2)ccc1C1(N(C)C)CC1 [Compound I-60]
213 nM	COc1cc(-c2cc(C)c(=O)n(C)c2)ccc1S(=O)(=O)NCCN(C)C [Compound I-65]
981 nM	Cc1cc(-c2cn(C)c(=O)c3ccccc23)ccc1C(=O)N1CCN(C)CC1 [II-45]
3140 nM	Cc1cc(-c2cn(C)c(=O)c3ccccc23)ccc1C(N)=O [II-49]
515 nM	COc1cc(-c2cc(C)c(=O)n(C)c2)ccc1S(=O)(=O)N1CCN(C)CC1 [Compound I-82]
1590 nM	Cc1cc(-c2ccc(S(=O)(=O)C(C)C)cc2)cn(C)c1=O [Compound I-13]
303 nM	COc1cc(-c2cc(C)c(=O)n(C)c2C)c(OC)cc1CN1CCN(C)CC1 [Compound I-131]
